≈ marks a conversion by molar mass, not a printed value. Calls of active or inactive are those of the source. The rule behind the calls is not given here.
What was measured:
COLO 205 = test: Cytotoxicity against human COLO205 cells; type: functional; settings: for EC50: read-out: ED50 (the source's name)
[1] = (§1) Cytotoxicity against human Hep3B cells; type: functional, Hep 3B2; settings: read-out: ED50 (the source's name)
KB = test: Cytotoxicity against human KB cells; type: functional; settings: for EC50: read-out: ED50 (the source's name)
Hep 3B2 = test: as §1; type: functional

Structure (SMILES)	ED50 (COLO 205)	EC50 [1] [µg/mL]	EC50 (KB) [µg/mL]	ED50 (Hep 3B2)	EC50 (COLO 205) [µg/mL]	ED50 (KB)
COc1c(O)ccc2c(=O)c3c(O)cc(O)c(OC)c3n(C)c12	inactive	5.3 (≈ 16.7 µM)	0.22 (≈ 0.693 µM)			
COc1c(O)cc(O)c2c(=O)c3cccc(O)c3n(C)c12 [CITRUSININE-II]	inactive		0.82 (≈ 2.85 µM)	inactive		
COc1c(/C=C/C(C)C)c(O)c2c(=O)c3cccc(O)c3[nH]c2c1CC=C(C)C				inactive	1.2 (≈ 3.05 µM)	inactive
COc1cc(O)c2c(=O)c3cccc(O)c3n(C)c2c1OC [CITRUSININE-I]		6.6 (≈ 21.9 µM)	0.09 (≈ 0.299 µM)		6.3 (≈ 20.9 µM)	
CC(C)=CCc1c2c(c3[nH]c4ccccc4c(=O)c3c1O)C=CC(C)(C)O2 [SEVERIFOLINE]	inactive		0.09 (≈ 0.249 µM)	inactive		
CC(C)=CCc1c2c(c(O)c3c(=O)c4ccccc4[nH]c13)C=CC(C)(C)O2				inactive	0.58 (≈ 1.6 µM)	inactive

— ChEMBL document CHEMBL1155745, “Constituents of the root bark of Severinia buxifolia collected in Hainan” (2001)
